Test results reported in US6458832B1, “Carboplatin analogs for cancer treatment” (Unitech Pharmaceuticals, Inc., priority 1999, dated 2002).

Test system: human squamous carcinoma clone cancer cell line (SCC-1)
Test: In-vitro effect on SCC-1 cell growth (cell viability by Coulter Counter)
Type: cell-based
Conditions: for Cell Count/mL: SCC-1 cells, two days after treatment at 37° C., untreated (0 μM) 5.70 × 10^5
Method: The in-vitro effects of sample #01 1700 on human squamous carcinoma clone cancer cell line (SCC-1).
All cell culture plasticware was purchased from Fisher. Media and antibiotics were purchased from Gibco and Sigma.
Cell viability using a Coulter Counter is used to quantify toxicity. SCC-^1 cells are grown in MEM media containing 10% Fetal Bovine Serum, 100 units/ml penicillin, 100 1μ/ml streptomycin, and 2.5 μg/ml fungizone at 37° C. in a 5% CO2 incubator. A 6 well dish is inoculated to 2.0×10^5 cells/well in a total volume of media of 2 ml. Incubation occurs overnight and the cells are ready for treatment the next day.
Stock solution of sample #01 1700 is sterile filtered with a 0.22 μm low protein binding syringe filter. Dilutions are made in fresh MEM-10% FBS.
Two days after treatment at 37° C., cells are harvested and quantified using a Coulter Counter. To harvest, all media is removed and 1 ml of 1× trypsin solution is added per well. Tryspin is in the well for approximately 5 minutes at 37° C. After 5 minutes, 1 ml of fresh MEM-10% FBS is added per well. Upon vigorous mixing to ensure breakup of aggregate cells, dilutions are made in Isoton®II ready for cell counts. Each well is counted twice. Thus, duplicate wells plus duplicate counts yield 4 cell counts per parameter above.

## CC(N)C(=O)O.CC(N)C(=O)O.[Cl][Pt][Cl] (stereo not drawn) [#011700, PtCl2[CH3CH(NH)2COOH]2]
20 μM #011700
  Cell Count/mL: 600000 mL⁻¹
30 μM #011700
  Cell Count/mL: 580000 mL⁻¹
40 μM #011700
  Cell Count/mL: 520000 mL⁻¹
50 μM #011700
  Cell Count/mL: 440000 mL⁻¹
60 μM #011700
  Cell Count/mL: 380000 mL⁻¹
20-60 μM, two days after treatment
  inhibition of the growth of SCC-1 cells in-vitro: shows inhibition of the growth
